Data: ChEMBL document CHEMBL5727805, “Bicyclic quinazolinone derivatives” (2020)

Molecular target: Autotaxin (Homo sapiens, UniProt Q13822)
Test: Human ATX Enzyme Inhibition Assay: ATX inhibition was measured by a fluorescence quenching assay using a specifically labeled substrate analogue (MR121 substrate). To obtain this MR121 substrate, BOC and TBS protected 6-amino-hexanoic acid (R)-3-({2-[3-(2-{2-[2-(2-amino-ethoxy)-ethoxy]-ethoxy}-ethoxy)-propionylamino]-ethoxy}-hydroxy-phosphoryloxy)-2-hydroxy-propyl ester (Ferguson et al., Org. Lett. 2006, 8, 2023) was labeled with MR121 fluorophore [CAS RN 185308-24-1], 1-(3-carboxypropyl)-11-ethyl-1,2,3,4,8,9,10,11-octahydro-dipyrido[3,2-b:2′,3′-i]phenoxazin-13-ium) on the free amine of the ethanolamine side and then, after deprotection, subsequently with tryptophan on the side of the aminohexanoic acid.Assay working solutions were made as follows:Assay buffer (50 mM Tris-HCl, 140 mM NaCl, 5 mM KCl, 1 mM CaCl2, 1 mM MgCl2, 0.01% Triton-X-100, pH 8.0;ATX solution: ATX (human His-tagged) stock solution (1.08 mg/mL in 20 mM bicine, pH 8.5, 0.15 M NaCl, 10% glycerol, 0.3% CHAPS, 0.02% NaN3), diluted to 1.4-2.5× final concentration in assay buffer;MR121 substrate solution: MR121 substrate stock solution (800 μM MR121 substrate in DMSO), diluted to 2-5× final concentration in assay buffer.Test compounds (10 mM stock in DMSO, 8 μL) were obtained in 384 well sample plates (Corning Costar #3655) and diluted with 8 μL DMSO. […]

For `CC(=O)N1CCCN(c2ccc3ncn(CC(=O)NCc4ccc(Cl)c(Cl)c4)c(=O)c3c2)CC1`, the IC50 was 35 nM.
